Experimental data reported in patent US8609870B2, “Treating various disorders using TrkB agonists” (Emory University, priority 2008, dated 2013).

Key:
[1] = target: TrkA (Mus musculus, UniProt Q3UFB7); experiment: TrkA activation in cortical neurons from knockout mouse pups; format: cell-based; design: endogenous in cells; host or cells: primary cortical neurons from mouse pups; conditions: cortical neurons (pups of TrkB +/− mice)
[2] = system: mice; experiment: Forced swim test; format: in vivo, mouse
Procedure: To explore whether an identified active compound has an antidepressant effect like BDNF, a forced swim test is conducted. Adult male mice (2-3 months old) are randomly submitted, without a pre-swim, to a forced swim test of 6 minutes with immobility recorded in the last 4 minutes. The mice are injected intraperitoneally for 5 days with saline, imipramine (20 mg/kg), amitryptyline (15 mg/kg), or an identified active compound (5 mg/kg). The mice are allowed to adapt to the test room for 2 days, and the mice are placed in a clear glass cylinder with a diameter of 16 cm, half-filled with clear water at 24° C.
To investigate whether deoxygedunin mimicked BDNF in suppressing depression-like symptoms, a forced swim test after subchronic treatment of the mice for 5 days with various drugs was conducted. […] To assess whether the behavior responses by 7,8-DHF and deoxygedunin were mediated by TrkB receptor, TrkB F616A knockin mice were used. The transgenic mice were subjected to saline or 1NMPP1 treatment, respectively.

[3] = system: TrkB; experiment: TrkB activation in cortical neurons from knockout mouse pups; format: cell-based; conditions: wild-type cortical neurons (pups of TrkB +/− mice)
Procedure: (§1) To determine whether an identified active compound selectively activates TrkB receptor and prevents neuronal cell death, cortical neurons are prepared from homozygous pups of TrkB +/− mice, which are mated to the same genotype. The activation of TrkB and down stream indicators of TrkB activation, such as Capase-3, are monitored. To further assess whether an identified active compound blocks neuronal apoptosis in a TrkB dependent manner, cortical neurons are prepared from homozygous pups of […], which are mated to the same genotype. Again, the activation of TrkB and down stream indicators of TrkB activation, such as Capase-3, are monitored.
(§2) Additionally, the spontaneous caspase-3 activation in […] was suppressed by deoxygedunin.

[4] = system: caspase-3; experiment: Caspase-3 activation in cortical neurons from knockout mouse pups; format: cell-based
Procedure: as §1, §2

[5] = system: Akt and Erk1/2; experiment: Akt and Erk1/2 activation in cortical neurons from TrkB F616A knockin mice; format: cell-based, mouse
Procedure: (§3) To explore whether the neuroprotective action of an identified active compound is dependent on TrkB activation in vivo, TrkB F616A knockin mice are used. […] To further assess whether an identified active compound can mimic BDNF, cortical neurons are prepared from TrkB F616A knockin mice. The cortical neurons are pretreated for 30 minutes with either K252a Trk tyrosine kinase inhibitor (100 nM) or 1NMPP1 inhibitor (100 nM) followed by 0.5 μM identified active compound for 30 minutes.
(§4) […] inversely correlated with TrkB activation by deoxygedunin (FIG. 20, top and middle panels).

[6] = system: TrkB F616A knockin mice; experiment: KA-provoked apoptosis (caspase-3) in TrkB F616A knockin mice; format: in vivo, mouse
Procedure: To determine if 1NMPP1 makes neurons treated with an identified active compound vulnerable to KA-provoked neuronal cell death, TrkF616A knockin mice are fed with 1NMPP1 (25 mM) in drinking water one day prior to pharmacological reagent treatment. The next day, the mice are intraperitoneally injected with KA (25 mg/kg), or an identified active compound (5 mg/kg) 4 hours prior to KA injection. The control mice are injected with either KA or an identified active compound alone, or the mice are administered an identified active compound 4 hours before KA. After 4 days, the mice are sacrificed and the brains are homogenized and ultracentrifuged. The supernatant then is employed for SDS-PAGE and immunoblotting analysis.
as §4

[7] = target: T1, TrkB F616A (Mus musculus, UniProt P15209, F616A); experiment: TrkB phosphorylation in cortical neurons from TrkB F616A knockin mice; format: cell-based; conditions: inhibitor pretreatment
T1 construct: cortical neurons from TrkB F616A knockin mice; endogenous in cells; host or cells: primary cortical neurons from TrkB F616A knock-in mice
T1 sequence (P15209 32-821 F616A): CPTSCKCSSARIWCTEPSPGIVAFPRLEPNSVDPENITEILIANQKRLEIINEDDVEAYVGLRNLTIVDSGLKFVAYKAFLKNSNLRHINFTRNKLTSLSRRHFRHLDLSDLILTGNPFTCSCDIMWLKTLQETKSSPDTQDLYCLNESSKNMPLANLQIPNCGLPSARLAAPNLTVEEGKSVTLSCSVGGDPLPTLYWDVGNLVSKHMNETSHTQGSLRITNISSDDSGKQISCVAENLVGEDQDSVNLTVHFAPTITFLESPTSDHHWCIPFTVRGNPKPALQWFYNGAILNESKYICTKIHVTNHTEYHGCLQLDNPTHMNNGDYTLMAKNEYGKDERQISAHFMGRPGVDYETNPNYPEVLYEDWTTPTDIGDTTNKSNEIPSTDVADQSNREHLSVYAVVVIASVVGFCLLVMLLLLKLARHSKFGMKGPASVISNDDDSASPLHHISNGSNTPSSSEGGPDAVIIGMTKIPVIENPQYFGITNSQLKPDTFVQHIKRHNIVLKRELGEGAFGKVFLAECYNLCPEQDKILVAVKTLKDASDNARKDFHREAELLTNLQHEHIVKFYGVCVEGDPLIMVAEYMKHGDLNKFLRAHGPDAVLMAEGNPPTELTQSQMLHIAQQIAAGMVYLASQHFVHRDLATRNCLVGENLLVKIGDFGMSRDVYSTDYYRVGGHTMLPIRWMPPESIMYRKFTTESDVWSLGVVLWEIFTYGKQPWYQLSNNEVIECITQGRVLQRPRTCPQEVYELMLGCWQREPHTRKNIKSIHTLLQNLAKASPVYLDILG
Procedure: as §3, §4

[8] = system: hippocampal neurons; experiment: Oxygen-glucose deprivation (OGD) apoptosis in hippocampal neurons; format: cell-based; conditions: apoptotic ratio compared to BDNF and DMSO
[9] = system: hippocampal neurons; experiment: Glutamate-triggered apoptosis in hippocampal neurons (MR(DEVD)2 / condensed nuclei); format: cell-based; conditions: 0.5 μM preincubated 30 min, then 50 μM glutamate 16 h
Procedure: To create and test reporter cell lines. In order to identify small molecules that mimic BDNF and activate TrkB, TrkB stably transfected murine cell lines are created. The T48 and T62 cell lines are created by transfecting basal forebrain SN56 cells, which express negligible TrkB, with a TrkB expression construct. To test expression of TrkB, the cells are treated with BDNF, which is predicted to result in strong phosphorylation of Trk-490 and Akt activation in comparison to the TrkA NTR stably expressing T17 cell line indicating expression of TrkB. To test resistance to apoptosis, the SN56 cells and the T48 cell line are either untreated or treated with BDNF, and then are subjected to an apoptotic assay. The apoptotic assay involves treating the cells with 0.75 μM Staurosporine for 9 hours, and 1 hour before completing the experiment, the cells are treated with 10 μM MR (DEVD)2. The cells then are fixed with 4% paraformaldehyde for 15 minutes, washed with phosphate buffered saline (PBS), and incubated with Hoechst 33342 for 10 minutes. Cover slides are washed with PBS, mounted, and then the cells are examined using a fluorescent microscope to see which cells turn red upon caspase cleavage.
To compare the apoptosis inhibitory activity of identified active compounds, the compounds are preincubated with SN56 and T48 cells, and subsequently are subjected to the fluorescent apoptotic assay as described above. To examine whether these identified active compounds promote neuronal survival, hippocampal neurons are prepared and the cultures are pretreated with the identified active compounds for 30 minutes, followed by treatment with 50 μM glutamate for 16 hours.
Using a cell-based screen as described above in Example 1 (based on the anti-apoptotic action of TrkB signaling) and the chemical library from the Spectrum Collection (described above), 66 positive hits were generated, four of which were gedunin derivatives. […] In this assay, neurons with both cleaved caspase (MR (DEVD)2 red cells) and condensed nuclei (DAPI staining) were counted as apoptotic cells. […]

[10] = system: Erk1/2 and Akt; experiment: Erk1/2 and Akt activation in hippocampal neurons (Western blot); format: cell-based; conditions: K252a pretreatment of hippocampal neurons
Procedure: BDNF binding to TrkB induces its autophosphorylation and, subsequently, activation of downstream kinase pathways including MAPK and PI3/Akt. To explore whether an identified active compound triggers TrkB activation, immunofluorescent staining on hippocampal neurons with anti-phospho TrkB antibody is conducted. To examine whether an identified active compound stimulates TrkB-mediated downstream signaling cascades, Western analysis is performed and the activation of Akt and Erk also is monitored. To test whether the stimulatory effect of an identified active compound is mediated through TrkB, cells are either untreated or treated with K252a, a selective inhibitor of the tyrosine kinase activity of the Trk family of neutrophin receptors. Cells treated with K252a block TrkB tyrosine phosphorylation in cells exposed to an identified active compound. To probe the time course of TrkB activation triggered by an identified active compound, hippocampal neurons are treated with an identified active compound at 500 nM and phosphorylation of Erk and Akt is determined over time by Western analysis. Whether stimulation of Erk and Akt by an identified active compound occurs in a dose dependent manner also is determined.
Both Akt and Erk1/2 were robustly activated by these molecules as well). […] The minimal required drug concentration was about 100-250 nM (see FIG. 7, right panels). […] To assess whether deoxygedunin provokes TrkB activation in the brain, mice (i.p.) were injected with a dose of 5 mg/kg for various time points. […] To establish that deoxygedunin is orally bioactive in provoking TrkB activation, two to three month old C57BL/6J mice were orally injected with various doses of 7,8-dihydroxyflavone or deoxygedunin then sacrificed 2 to 4 hours after administration. Brain lysates were prepared and analyzed by immunoblotting (see FIG. 10).

[11] = system: TrkB; experiment: TrkB phosphorylation in hippocampal neurons (immunofluorescent staining, immunoblotting); format: cell-based; conditions: K252a pretreatment of hippocampal neurons
Procedure: Unless specifically described, primary hippocampal neurons are seeded on poly-L lysine coated coverslips in a 12-well plate. After 7 days in vitro, the neurons are treated with 100 ng/ml BDNF or variety of flavone compounds (1 μM) for 30 minutes, and then are washed with PBS. Cells are fixed with 3% formaldehyde in PBS at room temperature for 10 minutes. The cells then are permeabilized and blocked by 0.4% Triton X-100 and 2% FBS in PBS at room temperature for 15 minutes, are washed with PBS three times, and are treated with anti-MAP2 (1:200) and anti-phospho-TrkB antibodies (1:500). After staining with FITC- or Rhodamine-conjugated secondary antibody, the coverslips are mounted on slides. Fluorescent images are taken by a fluorescence microscope.
BDNF binding to TrkB induces its autophosphorylation and, subsequently, activation of downstream kinase pathways including MAPK and PI3/Akt. […] To examine whether an identified active compound stimulates TrkB-mediated downstream signaling cascades, Western analysis is performed and the activation of Akt and Erk also is monitored. […] To probe the time course of TrkB activation triggered by an identified active compound, hippocampal neurons are treated with an identified active compound at 500 nM and phosphorylation of Erk and Akt is determined over time by Western analysis. […]

Sequence of TrkA (Q3UFB7 34-799): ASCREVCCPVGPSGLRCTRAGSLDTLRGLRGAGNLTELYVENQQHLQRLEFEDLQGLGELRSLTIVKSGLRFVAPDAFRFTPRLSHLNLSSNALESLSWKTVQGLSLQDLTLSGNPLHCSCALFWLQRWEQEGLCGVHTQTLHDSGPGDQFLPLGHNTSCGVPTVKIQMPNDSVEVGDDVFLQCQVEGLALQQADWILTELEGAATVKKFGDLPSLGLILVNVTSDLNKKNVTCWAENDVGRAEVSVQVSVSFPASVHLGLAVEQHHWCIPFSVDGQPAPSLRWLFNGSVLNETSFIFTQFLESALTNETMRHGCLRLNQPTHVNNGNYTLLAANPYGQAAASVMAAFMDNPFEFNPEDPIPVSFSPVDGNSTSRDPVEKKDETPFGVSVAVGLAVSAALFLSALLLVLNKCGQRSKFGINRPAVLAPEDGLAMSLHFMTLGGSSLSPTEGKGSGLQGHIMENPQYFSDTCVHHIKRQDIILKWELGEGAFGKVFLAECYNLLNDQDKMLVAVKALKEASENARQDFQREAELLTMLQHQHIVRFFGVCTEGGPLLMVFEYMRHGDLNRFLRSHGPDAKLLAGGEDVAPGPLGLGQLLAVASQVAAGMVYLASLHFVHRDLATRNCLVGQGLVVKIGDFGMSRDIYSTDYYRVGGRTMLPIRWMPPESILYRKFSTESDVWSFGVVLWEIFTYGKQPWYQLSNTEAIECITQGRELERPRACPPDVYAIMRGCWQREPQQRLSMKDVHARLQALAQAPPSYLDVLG

SMILES	TrkA activation [1]	blockade of glutamate-provoked caspase-3 activation ([4]; wild-type cortical neurons)	blockade of glutamate-provoked caspase-3 activation ([4]; TrkB −/− cortical neurons)	TrkB activation [3]	blockade of BDNF-triggered Akt and Erk1/2 activation [5]	blockade of BDNF-provoked TrkB phosphorylation [7]	blockade of deoxygedunin provoked TrkB phosphorylation [7]	also measured
CC(C)(C)n1nc(Cc2cccc3ccccc23)c2c(N)ncnc21 [1NMPP1]					blocked BDNF-triggered Akt and Erk1/2 activation	selectively blocked	selectively blocked	effect on Akt and Erk1/2 activation by deoxygedunin [5]: diminished Akt and Erk1/2 activation; effect of 1NMPP1 pretreatment on deoxygedunin's protective effect ([6]; F616A mice, KA): diminished deoxygedunin's protective effect; effect of 1NMPP1 pretreatment on KA-provoked apoptosis ([6]; TrkB F616A mice): elevated KA-provoked apoptosis; immobility time, 1NMPP1-treated versus saline ([2]; TrkB F616A knockin mice, no test drug): No significant difference
CC(=O)O[C@@H]1CC2C(C)(C)C(=O)CC[C@]2(C)C2CC[C@]3(C)C(=CC(=O)O[C@H]3c3ccoc3)[C@@]21C (some centres unmarked) [dihydrodeoxygedunin]								protective effects on hippocampal neurons under OGD [8]: potent protective effects; protective effect (apoptosis inhibitory activity) [9]: protective effect
COC(=O)[C@@]1(O)C[C@H]2O[C@]1(C)n1c3ccccc3c3c4c(c5c6ccccc6n2c5c31)C(=O)NC4 [K252a]					not K252a	not K252a	not K252a	blockade of deoxygedunin-provoked downstream Akt and MAPK signalings [10]: blocked; blockade of deoxygedunin-triggered TrkB activation [11]: substantially blocked

Second part, led by results:

TrkA activation [1]	blockade of glutamate-provoked caspase-3 activation ([4]; wild-type cortical neurons)	blockade of glutamate-provoked caspase-3 activation ([4]; TrkB −/− cortical neurons)	SMILES	TrkB activation [3]	blockade of BDNF-triggered Akt and Erk1/2 activation [5]	blockade of BDNF-provoked TrkB phosphorylation [7]	blockade of deoxygedunin provoked TrkB phosphorylation [7]	also measured
not imipramine	failed to block caspase-3 activation		CN(C)CCCN1c2ccccc2CCc2ccccc21 [imipramine, reference compound]	not imipramine				swimming immobility ([2]; mice, subchronic treatment 5 days, imipramine 20 mg/kg, deoxygedunin 5 mg/kg): significantly decreased
activated both TrkA and TrkB	weakly suppressed caspase-3 activation	weakly suppressed caspase-3 activation	CN(C)CCC=C1c2ccccc2CCc2ccccc21 [amitriptyline]	activated both TrkA and TrkB				
not TrkA	substantially blocked	not TrkB −/− neurons	O=c1cc(-c2ccccc2)oc2c(O)c(O)ccc12 [7,8-dihydroxyflavone]	selectively activated TrkB				
